Columns and labels:
[1] = Solubility of the Meadowlactone as a function of pH in aqueous systems; type: physicochemical
Description: Solubility of the Meadowlactone as a function of pH was determined in aqueous systems.
In these experiments, 2 weight percent of Meadowlactone was mixed with water at room temperature. The pH of this mixture was varied, starting at an acidic pH and terminating at an alkaline pH. The clarity of the mixture was observed, and the mixture was photographed, at different pH levels (varying by one pH unit at a time).

skin = experiment: Initial use trials of skin creams containing the Meadowlactone; type: in vivo
[2] = Analytical results on purified Meadowlactone (stability); type: physicochemical
Source text: The purified Meadowlactone was identified and subsequently quantified by infrared spectroscopy and HPLC coupled with an evaporative light-scattering detector.

oil / water solubility of the isomeric structures ([1]; 2 weight percent in water at room temperature, pH varied from acidic to alkaline, clarity observed): oil soluble | stability [2]: extended stability
Structure (SMILES): CCCCCCCCCCCCCCCC1CCCC(=O)O1 (stereo not shown) [Meadowlactone, Meadowfoam Delta Lactone]
forms present at the pH reported for human skin ([1]; pH from about 4.5 to about 5.5): both the Meadowlactone and the 5-hydroxy fatty acid exist together in equilibrium | skin moisturization (skin): very effective
